Test results published in PMC2760403 (The Journal of organic chemistry, 2009).

Experiments:
Type in all cases: biochemical
[1] = biological target: M. tuberculosis Riboflavin Synthase (Mycobacterium tuberculosis, UniProt P9WK35); experiment: Riboflavin synthase kinetic inhibition assay; conditions: recombinant M. tuberculosis RS; for kcat (rate constant ES → E + P): fit of the compound's data set; for kcat (rate constant ES → E + P) / Kis (inhibitor dissociation constant, ES + I ⇌ ESI): pH 7.0
[2] = biological target: T1, S. pombe Lumazine Synthase (Schizosaccharomyces pombe, UniProt Q9UUB1); experiment: Lumazine synthase kinetic inhibition assay; conditions: recombinant S. pombe LS; for kcat (rate constant ES → E + P): fit of the compound's data set; for kcat (rate constant ES → E + P) / Kis (inhibitor dissociation constant, ES + I ⇌ ESI): pH 7.0; for Kis (inhibitor dissociation constant, ES + I ⇌ ESI): substrate 1 varied, 2 constant
T1 sequence (Q9UUB1 1-159): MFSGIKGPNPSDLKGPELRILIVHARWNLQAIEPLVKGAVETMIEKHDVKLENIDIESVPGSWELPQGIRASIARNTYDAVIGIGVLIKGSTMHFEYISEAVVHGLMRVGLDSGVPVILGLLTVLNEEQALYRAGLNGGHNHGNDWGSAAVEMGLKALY

[3] = biological target: M. tuberculosis Lumazine Synthase (Mycobacterium tuberculosis, UniProt P9WHE9); conditions: recombinant M. tuberculosis LS; for kcat (rate constant ES → E + P): fit of the compound's data set; for kcat (rate constant ES → E + P) / Kis (inhibitor dissociation constant, ES + I ⇌ ESI): pH 7.0; for Kis (inhibitor dissociation constant, ES + I ⇌ ESI): substrate 1 varied, 2 constant
[4] = biological target: E. coli Riboflavin Synthase (Escherichia coli, UniProt P0AFU8); experiment: Riboflavin synthase kinetic inhibition assay; conditions: recombinant E. coli RS; for kcat (rate constant ES → E + P): fit of the compound's data set; for kcat (rate constant ES → E + P) / Kis (inhibitor dissociation constant, ES + I ⇌ ESI): pH 7.0
Sequence of E. coli Riboflavin Synthase (P0AFU8 whole entry): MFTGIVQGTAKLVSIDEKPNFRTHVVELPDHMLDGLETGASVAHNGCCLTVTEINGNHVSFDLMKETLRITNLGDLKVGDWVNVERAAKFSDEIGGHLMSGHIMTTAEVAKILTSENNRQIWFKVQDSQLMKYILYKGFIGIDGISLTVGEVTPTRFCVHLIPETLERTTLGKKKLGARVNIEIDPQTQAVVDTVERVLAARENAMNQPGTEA

Sequence of M. tuberculosis Riboflavin Synthase (P9WK35 whole entry): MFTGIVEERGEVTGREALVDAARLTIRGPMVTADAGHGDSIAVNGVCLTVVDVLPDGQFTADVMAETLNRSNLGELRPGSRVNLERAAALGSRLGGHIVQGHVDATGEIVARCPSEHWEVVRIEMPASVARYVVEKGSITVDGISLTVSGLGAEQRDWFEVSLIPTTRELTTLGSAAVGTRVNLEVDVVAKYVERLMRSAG
Sequence of M. tuberculosis Lumazine Synthase (P9WHE9 whole entry): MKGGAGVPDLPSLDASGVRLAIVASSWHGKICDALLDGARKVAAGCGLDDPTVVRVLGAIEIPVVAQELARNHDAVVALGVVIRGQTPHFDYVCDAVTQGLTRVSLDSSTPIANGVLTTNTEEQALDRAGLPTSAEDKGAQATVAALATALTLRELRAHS

## O=c1[nH]c(/C=C/c2ccccc2O)c([N+](=O)[O-])c(=O)[nH]1 [Compound 9, (E)-5-Nitro-6-(2-hydroxystyryl)pyrimidine-2,4(1H,3H)-dione]
[1]
  Mode of inhibition: Uncompetitive
  kcat (rate constant ES → E + P): 0.0683 ± 0.0033 s⁻¹
  Kis (inhibitor dissociation constant, ES + I ⇌ ESI): 917 ± 212 µM
[2]
  Mode of inhibition: Competitive
  kcat (rate constant ES → E + P): 0.023 ± 0.0005 s⁻¹
[3]
  Mode of inhibition: Competitive
  kcat (rate constant ES → E + P): 0.00433 ± 0.00017 s⁻¹

## O=c1[nH]c(/C=C/c2cccc(O)c2)c([N+](=O)[O-])c(=O)[nH]1 [Compound 15, (E)-6-(3-Hydroxystyryl)-5-nitropyrimidine-2,4(1H,3H)-dione]
[4]
  Inhibitory activity in words: completely ineffective
[2]
  Inhibitory activity in words: completely ineffective
[3]
  Mode of inhibition: Competitive
  kcat (rate constant ES → E + P): 0.00383 ± 0.00017 s⁻¹

## O=c1[nH]c(/C=C/c2ccc(O)cc2)c([N+](=O)[O-])c(=O)[nH]1 [Compound 16, (E)-6-(4-Hydroxystyryl)-5-nitropyrimidine-2,4(1H,3H)-dione]
[4]
  Inhibitory activity in words: completely ineffective
[2]
  Inhibitory activity in words: completely ineffective
[3]
  Mode of inhibition: Partial
  kcat (rate constant ES → E + P): 0.00717 ± 0.00017 s⁻¹
  Kis (inhibitor dissociation constant, ES + I ⇌ ESI): 17 ± 5 µM

## O=c1[nH]c(/C=C/c2cccc(O)c2O)c([N+](=O)[O-])c(=O)[nH]1 [Compound 17, (E)-6-(2,3-Dihydroxystyryl)-5-nitropyrimidine-2,4(1H,3H)-dione]
[4]
  Mode of inhibition: Mixed
  kcat (rate constant ES → E + P): 0.085 ± 0.0017 s⁻¹
  Kis (inhibitor dissociation constant, ES + I ⇌ ESI): 26 ± 4 µM
[1]
  Mode of inhibition: Partial
  kcat (rate constant ES → E + P): 0.0045 ± 0.00033 s⁻¹
  Kis (inhibitor dissociation constant, ES + I ⇌ ESI): 37 ± 16 µM
[2]
  Mode of inhibition: Partial
  kcat (rate constant ES → E + P): 0.0262 ± 0.00033 s⁻¹
  Kis (inhibitor dissociation constant, ES + I ⇌ ESI): 16 ± 3 µM
[3]
  Mode of inhibition: Mixed
  kcat (rate constant ES → E + P): 0.006 ± 0.00017 s⁻¹
  Kis (inhibitor dissociation constant, ES + I ⇌ ESI): 81 ± 29 µM

## O=c1[nH]c(/C=C/c2cc(O)ccc2O)c([N+](=O)[O-])c(=O)[nH]1 [Compound 18, (E)-6-(2,5-Dihydroxystyryl)-5-nitropyrimidine-2,4(1H,3H)-dione]
[4]
  Mode of inhibition: Uncompetitive
  kcat (rate constant ES → E + P): 0.085 ± 0.0017 s⁻¹
  Kis (inhibitor dissociation constant, ES + I ⇌ ESI): 122 ± 10 µM
[1]
  Mode of inhibition: Uncompetitive
  kcat (rate constant ES → E + P): 0.00367 ± 0.00033 s⁻¹
  Kis (inhibitor dissociation constant, ES + I ⇌ ESI): 398 ± 156 µM
[2]
  Mode of inhibition: Uncompetitive
  kcat (rate constant ES → E + P): 0.0245 ± 0.00067 s⁻¹
  Kis (inhibitor dissociation constant, ES + I ⇌ ESI): 53 ± 5 µM
[3]
  Mode of inhibition: Uncompetitive
  kcat (rate constant ES → E + P): 0.00283 ± 0.00017 s⁻¹
  Kis (inhibitor dissociation constant, ES + I ⇌ ESI): 420 ± 168 µM

## O=c1[nH]c(/C=C/c2ccc(F)cc2)c([N+](=O)[O-])c(=O)[nH]1 [Compound 29, (E)-6-(4-Fluorostyryl)-5-nitropyrimidine-2,4(1H,3H)-dione]
[1]
  Mode of inhibition: Mixed
  kcat (rate constant ES → E + P): 0.00667 ± 0.00017 s⁻¹
  Kis (inhibitor dissociation constant, ES + I ⇌ ESI): 776 ± 294 µM
[3]
  Mode of inhibition: Mixed
  kcat (rate constant ES → E + P): 0.0065 ± 0.00033 s⁻¹
  Kis (inhibitor dissociation constant, ES + I ⇌ ESI): 25 ± 8 µM

## O=c1[nH]c(/C=C/c2cc([N+](=O)[O-])ccc2O)c([N+](=O)[O-])c(=O)[nH]1 [Compound 32, (E)-6-(2-Hydroxy-5-nitrostyryl)-5-nitropyrimidine-2,4(1H,3H)-dione]
[1]
  Mode of inhibition: Uncompetitive
  kcat (rate constant ES → E + P): 0.00783 ± 0.00017 s⁻¹
  Kis (inhibitor dissociation constant, ES + I ⇌ ESI): 800 ± 107 µM
[3]
  Mode of inhibition: Competitive
  kcat (rate constant ES → E + P): 0.0107 ± 0.0005 s⁻¹

## O=c1[nH]c(/C=C/c2ccc([N+](=O)[O-])c(O)c2)c([N+](=O)[O-])c(=O)[nH]1 [Compound 35, (E)-6-(3-Hydroxy-4-nitrostyryl)-5-nitropyrimidine-2,4(1H,3H)-dione]
[4]
  Mode of inhibition: Uncompetitive
  kcat (rate constant ES → E + P): 0.0717 ± 0.0017 s⁻¹
  Kis (inhibitor dissociation constant, ES + I ⇌ ESI): 224 ± 22 µM
[2]
  Mode of inhibition: Mixed
  kcat (rate constant ES → E + P): 0.0188 ± 0.00017 s⁻¹
  Kis (inhibitor dissociation constant, ES + I ⇌ ESI): 497 ± 159 µM
[3]
  Mode of inhibition: Competitive
  kcat (rate constant ES → E + P): 0.00633 ± 0.00017 s⁻¹

## O=c1[nH]c(/C=C/c2ccc[nH]2)c([N+](=O)[O-])c(=O)[nH]1 [Compound 40, (E)-5-Nitro-6-[2-(1H-pyrrol-2-yl)vinyl]pyrimidine-2,4(1H,3H)-dione]
[4]
  Mode of inhibition: Mixed
  kcat (rate constant ES → E + P): 0.06 ± 0.0017 s⁻¹
  Kis (inhibitor dissociation constant, ES + I ⇌ ESI): 806 ± 401 µM
[2]
  Mode of inhibition: Mixed
  kcat (rate constant ES → E + P): 0.0173 ± 0.00017 s⁻¹
  Kis (inhibitor dissociation constant, ES + I ⇌ ESI): 248 ± 67 µM
[3]
  Mode of inhibition: Partial
  kcat (rate constant ES → E + P): 0.00633 ± 0.00017 s⁻¹
  Kis (inhibitor dissociation constant, ES + I ⇌ ESI): 42 ± 12 µM

## O=c1[nH]c(/C=C/c2ccc3ccccc3c2)c([N+](=O)[O-])c(=O)[nH]1 [Compound 43, (E)-6-(2-(Naphthalene-2-yl)vinyl)-5-nitropyrimidine-2,4(1H,3H)-dione]
[4]
  Mode of inhibition: Uncompetitive
  kcat (rate constant ES → E + P): 0.0553 ± 0.00083 s⁻¹
  Kis (inhibitor dissociation constant, ES + I ⇌ ESI): 270 ± 32 µM
[2]
  Mode of inhibition: Mixed
  kcat (rate constant ES → E + P): 0.043 ± 0.00033 s⁻¹
  Kis (inhibitor dissociation constant, ES + I ⇌ ESI): 476 ± 89 µM
[3]
  Mode of inhibition: Partial
  kcat (rate constant ES → E + P): 0.00617 ± 0.00017 s⁻¹
  Kis (inhibitor dissociation constant, ES + I ⇌ ESI): 72 ± 31 µM

## O=c1[nH]c(/C=C/C2C=Nc3ccccc32)c([N+](=O)[O-])c(=O)[nH]1 (centres unmarked) [Compound 44, (E)-6-(2-(3H-Indol-3-yl)vinyl)-5-nitropyrimidine-2,4(1H,3H)-dione]
[4]
  Mode of inhibition: Uncompetitive
  kcat (rate constant ES → E + P): 0.0567 ± 0.00067 s⁻¹
  Kis (inhibitor dissociation constant, ES + I ⇌ ESI): 426 ± 64 µM
[2]
  Mode of inhibition: Mixed
  kcat (rate constant ES → E + P): 0.0327 ± 0.00067 s⁻¹
  Kis (inhibitor dissociation constant, ES + I ⇌ ESI): 376 ± 127 µM
[3]
  Mode of inhibition: Mixed
  kcat (rate constant ES → E + P): 0.00667 ± 0.00017 s⁻¹
  Kis (inhibitor dissociation constant, ES + I ⇌ ESI): 488 ± 233 µM

## O=c1[nH]c(CCc2ccc(O)cc2)c([N+](=O)[O-])c(=O)[nH]1 [Compound 48, 6-(4-Hydroxy-2-phenethyl)-5-nitropyrimidine-2,4(1H,3H)-dione]
[1]
  Mode of inhibition: Uncompetitive
  kcat (rate constant ES → E + P): 0.00567 ± 0.00017 s⁻¹
  Kis (inhibitor dissociation constant, ES + I ⇌ ESI): 449 ± 45 µM
